Reference: publication PMC8717366, “Synthesis and Pharmacological Characterization of Visabron, a Backbone Cyclic Peptide Dual Antagonist of α4β1 (VLA-4)/α9β1 Integrin for Therapy of Multiple Sclerosis” (JACS Au, 2021)
Like-named read-outs stand apart in the source and are kept apart here. Numbered stars: 1 amine (or outer) side, 2 acyl side, 3 side chain; on linkers, the order of the positions; unused ones are H or OH. Bridge positions count the residues as written; N and C are the ends. Square brackets hold non-standard residues; d marks the D form. Peptide text beside a SMILES is read from it. CO = O=C([*:1])[*:2]; Nlys = NCCCCNCC(=O)O

Assay: Pharmacokinetics in rats after single i.v. dose
Format: in vivo, Male Wistar rats
Method: Pharmacokinetics of Visabron c (4-4) following iv injection:
Animals-Male Wistar rats (275−300 g, purchased from Harlan, Israel), were used for the surgical procedure. An indwelling cannula was implanted into the right jugular vein, and exteriotrated at the dorsal neck to enable serial systemic blood sampling. After completion of the surgical procedure, the animals were transferred to cages to recover overnight (12−18 h). The animals had free access to water and food during the recovery period and throughout the entire experiment. All surgical and experimental procedures were approved by the Animal Experimental Ethics Committee of the Hebrew University, Hadassah Medical School, Jerusalem. […]
PK Study-A single dose of Visabron c(4-4) in sterile water (300 μL of a 0.514 mg/mL solution, which was equivalent to a final dose of 0.514 mg/kg) was administered i.v. via the indwelling jugular cannula to each rat. Following dose administration, blood samples were taken at pre -dose, 10, 15, 30, 60, 90 and 130-min from the onset of the drug administration (time zero) via the right jugular vein. Approximately […]
350 μL of whole blood was removed, and placed in sodium-heparin containing tubes, and immediately placed in wet ice. Blood was centrifuged at 5322 g for 10 min and a 150 μL aliquot of plasma was transferred to fresh centrifuge tubes and stored at −20 °C pending analysis. PK analysis was performed using standard non-compartmental analysis models in Phoenix WinNonlin®.
Bioanalytical Method for the Detection of Vis-c(4-4) in Rat Plasma: Plasma samples (150 μL) were spiked with metoprolol (20 μL, 10 μg/mL) as an internal standard. 200 μL of ACN was added to each sample and vortex-mixed for 1 min. The samples were then centrifuged (14635 g, 10 min), and the supernatant was transferred to fresh glass tubes and evaporated to dryness (Vacuum Evaporation System, Labconco, Kansas City, MO, USA). The glass tubes were reconstituted in 80 μL of mobile phase and centrifuged a second time (14635 g, 10 min). The amount of the compounds was determined using an HPLC−MS Waters 2695 Separation Module, equipped with a Micromass ZQ detector. The resulting solution was injected (10 μL) into the HPLC sy stem. The system was conditioned as follows :
Xterra MS C18, 3.5 µm, 100A, 100 x 2.1 mm column (Waters), an isocratic mobile phase of ACN : water supplemented with 0.1% formic acid (15:85, v/v) and a flow rate of 0.2 mL/ min at 35 °C was used. The limit of quantification the peptide was 25 ng/mL. Calibration curve was prepared by spiking the standard working stock solution with 15 μL of the different concentrations, 20 μL IS (10 μg/ mL) and 135 μl blank rat plasma in a centrifuge tube on the analysis day . […]
range of 25 ng/Ml to 2.5 μg/mL.
Blood cell counting and biochemistry analyzes : Male C57BL/6 mice were injected intravenously with 0.2 ml of peptide in a dose of 500 mg/kg. No immediate toxicity symptoms were measured a nd thereafter, acute tolerability was observed. Since the hematopoietic system is one of the most sensitive parameters to assess the toxicity of drugs in humans and animals, tail vein blood samples were taken from control (n=3) and 250 mg/kg Visabron c (4-4) injected mice (n=5), after 24 hours from injection and submitted for hematocrit cell counting and biochemical analysis. […]
blood count and electrolytes of special importance are normal liver (ALP, alkaline phosphatase; ALT, alanine transaminase and AST, aspartate transaminase) functions and normal kidney (creatinine and blood urea nitrogen) functions, indicating sufficient organ integrity at the end of the experimental period. The data obtained was similar to hematological parameters reported for this mice strain5, and clearly indicates lack of differences on kidney and liver parameters between the two mice groups.
Visabron c (4-4) safety by in vitro evaluation using PhosphoSens - CSox based kinase assays:
A powerful method was used to measure the activity of recombinant protein kinases using a […]

For CSCC[C@@H]1NC(=O)[C@H]([C@@H](C)O)NC(=O)CN(C(=O)[C@@H](N)CCCCN)CCCCNC(=O)NCCCCN(CC(=O)N[C@@H](CC(C)C)C(N)=O)C(=O)[C@H](CC(=O)O)NC(=O)[C@H](CC(C)C)NC1=O [visabron c (4–4)] (H-K[Nlys]TMLD[Nlys]L-NH2; linker 2-7 via CO), which half-life (rat, in vivo, iv, 0.515 mg/kg, single i.v. dose 0.515 mg/kg, n = 4) is on record?
The half-life was 24 min.

What about the AUC (rat, in vivo, iv, plasma, single i.v. dose 0.515 mg/kg, n = 4) of the same compound?
Its AUC is 777 ng·h/mL.

What about the Vd (rat, in vivo, iv, read-out: volume of distribution) of the same compound?
The Vd was 0.39 L/kg.

What about the Vd (rat, in vivo, iv, single i.v. dose 0.515 mg/kg, n = 4, Table 3, read-out: Vd) of the same compound?
Its Vd is 0.381 ± 0.029 L/kg.

What about the clearance (rat, in vivo, iv, single i.v. dose 0.515 mg/kg, n = 4, noncompartmental analysis) of the same compound?
The clearance was 11.1 ± 0.5 mL/min/kg.

And the t1/2 (single i.v. dose 0.515 mg/kg, n = 4, 0.515 mg/kg)?
Its t1/2 is 23.8 ± 1.6 min.
